In doi:10.1101/2024.08.19.608619, “Discovery of potent SARS-CoV-2 nsp3 macrodomain inhibitors uncovers lack of translation to cellular antiviral response” (bioRxiv, 2024):
≈ marks a conversion by molar mass, not a printed value. Where “and” joins values, the source holds several entries; their conditions need not be identical. Identical values can stand only once. Like-named read-outs stand apart in the source and are kept apart here.

Columns and labels:
CCK1 (CCKA) (h) = target: T1, CCK1 (CCKA) (h) (Homo sapiens, UniProt P32238); experiment: In vitro CEREP profiling, CCK1 (CCKA) (h) (agonist radioligand); type: binding; conditions: test compound 10 uM
T1 construct: purchased Eurofins Cerep (SafetyScreen44), recognised from the panel format
T1 sequence (P32238 1-428): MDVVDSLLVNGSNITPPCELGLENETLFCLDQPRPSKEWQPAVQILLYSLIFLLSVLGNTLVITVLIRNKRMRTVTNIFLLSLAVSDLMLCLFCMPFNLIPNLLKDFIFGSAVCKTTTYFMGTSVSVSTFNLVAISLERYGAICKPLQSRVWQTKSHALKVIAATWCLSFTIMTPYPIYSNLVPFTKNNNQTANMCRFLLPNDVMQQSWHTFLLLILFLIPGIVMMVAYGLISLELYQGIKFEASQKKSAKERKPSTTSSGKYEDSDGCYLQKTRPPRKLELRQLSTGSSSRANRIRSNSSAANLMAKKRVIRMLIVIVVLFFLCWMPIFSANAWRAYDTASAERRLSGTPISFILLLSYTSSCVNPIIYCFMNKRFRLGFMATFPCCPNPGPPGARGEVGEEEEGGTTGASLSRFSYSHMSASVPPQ
Excerpt: (§1) Supplement media-1.zip/Safety_Panel_Profile.csv, table | column: perc_inhibition

A2A (h) = target: T2, A2A (h) (Homo sapiens, UniProt P29274); experiment: In vitro CEREP profiling, A2A (h) (agonist radioligand); type: binding; conditions: test compound 10 uM
T2 construct: purchased Eurofins Cerep (SafetyScreen44), recognised from the panel format
T2 sequence (P29274 whole entry): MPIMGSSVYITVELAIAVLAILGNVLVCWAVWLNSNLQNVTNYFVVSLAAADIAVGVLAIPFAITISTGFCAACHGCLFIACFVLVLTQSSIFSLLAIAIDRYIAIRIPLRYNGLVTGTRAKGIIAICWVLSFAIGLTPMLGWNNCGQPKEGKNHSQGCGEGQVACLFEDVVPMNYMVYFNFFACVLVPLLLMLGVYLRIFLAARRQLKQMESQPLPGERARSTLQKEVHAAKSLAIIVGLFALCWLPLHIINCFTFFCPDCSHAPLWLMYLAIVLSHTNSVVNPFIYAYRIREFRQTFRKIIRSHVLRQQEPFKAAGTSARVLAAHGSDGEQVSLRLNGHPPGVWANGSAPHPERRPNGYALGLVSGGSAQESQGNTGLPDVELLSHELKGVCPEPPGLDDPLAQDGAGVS
Excerpt: as §1

LogD = conditions: pH 7.4; In vitro LogD
5-HT3 (h) = target: T3, 5-HT3 (h) (Homo sapiens, UniProt P46098); experiment: In vitro CEREP profiling, 5-HT3 (h) (antagonist radioligand); type: binding; conditions: test compound concentration 10 uM
T3 construct: purchased Eurofins Cerep (SafetyScreen44), recognised from the panel format
T3 sequence (P46098 24-478): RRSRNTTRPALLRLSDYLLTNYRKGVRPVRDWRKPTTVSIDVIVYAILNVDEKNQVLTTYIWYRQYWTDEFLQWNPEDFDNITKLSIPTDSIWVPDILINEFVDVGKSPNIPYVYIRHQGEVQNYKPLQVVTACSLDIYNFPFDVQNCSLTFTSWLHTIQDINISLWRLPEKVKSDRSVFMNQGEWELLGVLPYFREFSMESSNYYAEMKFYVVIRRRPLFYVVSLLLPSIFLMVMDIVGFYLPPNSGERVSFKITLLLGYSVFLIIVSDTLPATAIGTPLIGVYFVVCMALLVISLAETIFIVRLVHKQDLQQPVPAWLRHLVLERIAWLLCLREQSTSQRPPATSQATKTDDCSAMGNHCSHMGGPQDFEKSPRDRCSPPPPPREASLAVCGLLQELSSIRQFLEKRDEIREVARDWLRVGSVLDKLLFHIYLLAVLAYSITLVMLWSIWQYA
Excerpt: as §1

[1] = In vitro rat SD liver microsomal stability; type: in vitro ADME
Excerpt: Supplement media-1.zip/Hepatic_Microsomal_Stability.csv, table | column: clint; t_half

beta2 (h) = target: T4, beta2 (h) (Homo sapiens, UniProt P07550); experiment: In vitro CEREP profiling, beta2 (h) (antagonist radioligand); type: binding; conditions: test compound 10 uM
T4 construct: purchased Eurofins Cerep (SafetyScreen44), recognised from the panel format
Excerpt: as §1

dopamine transporter (h) = target: T5, dopamine transporter (h) (Homo sapiens, UniProt Q01959); experiment: In vitro CEREP profiling, dopamine transporter (h) (antagonist radioligand); type: binding; conditions: test compound concentration 10 uM
T5 construct: purchased Eurofins Cerep (SafetyScreen44), recognised from the panel format
T5 sequence (Q01959 whole entry): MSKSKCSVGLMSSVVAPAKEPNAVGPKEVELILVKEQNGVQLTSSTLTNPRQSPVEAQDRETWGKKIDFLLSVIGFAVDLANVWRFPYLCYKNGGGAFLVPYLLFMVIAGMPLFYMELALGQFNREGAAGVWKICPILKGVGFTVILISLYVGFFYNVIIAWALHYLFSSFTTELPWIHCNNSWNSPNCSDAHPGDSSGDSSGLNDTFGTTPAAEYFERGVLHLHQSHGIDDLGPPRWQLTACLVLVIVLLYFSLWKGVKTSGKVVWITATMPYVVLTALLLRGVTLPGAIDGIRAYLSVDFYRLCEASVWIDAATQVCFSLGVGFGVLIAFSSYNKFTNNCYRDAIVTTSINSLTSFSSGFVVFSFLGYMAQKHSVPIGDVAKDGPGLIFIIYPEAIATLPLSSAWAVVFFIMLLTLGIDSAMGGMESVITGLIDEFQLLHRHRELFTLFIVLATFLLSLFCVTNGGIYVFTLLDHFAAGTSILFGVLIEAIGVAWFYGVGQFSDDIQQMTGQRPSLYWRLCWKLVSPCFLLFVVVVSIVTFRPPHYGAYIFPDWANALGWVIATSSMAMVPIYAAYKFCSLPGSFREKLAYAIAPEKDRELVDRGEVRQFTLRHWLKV
Excerpt: as §1

5-HT1B (h) = target: T6, 5-HT1B (h) (Homo sapiens, UniProt P28222); experiment: In vitro CEREP profiling, 5-HT1B (h) (antagonist radioligand); type: binding; conditions: test compound concentration 10 uM
T6 construct: purchased Eurofins Cerep (SafetyScreen44), recognised from the panel format
Excerpt: as §1

MSK2(h) = target: T7, MSK2(h) (Homo sapiens, UniProt O75676); experiment: biochemical; parameters: In vitro kinase panel profiling, per cent remaining kinase activity at 10 uM; conditions: atp_concentration=45, read-out: % of control remaining
T7 construct: gene RPS6KA4
T7 sequence (O75676 whole entry): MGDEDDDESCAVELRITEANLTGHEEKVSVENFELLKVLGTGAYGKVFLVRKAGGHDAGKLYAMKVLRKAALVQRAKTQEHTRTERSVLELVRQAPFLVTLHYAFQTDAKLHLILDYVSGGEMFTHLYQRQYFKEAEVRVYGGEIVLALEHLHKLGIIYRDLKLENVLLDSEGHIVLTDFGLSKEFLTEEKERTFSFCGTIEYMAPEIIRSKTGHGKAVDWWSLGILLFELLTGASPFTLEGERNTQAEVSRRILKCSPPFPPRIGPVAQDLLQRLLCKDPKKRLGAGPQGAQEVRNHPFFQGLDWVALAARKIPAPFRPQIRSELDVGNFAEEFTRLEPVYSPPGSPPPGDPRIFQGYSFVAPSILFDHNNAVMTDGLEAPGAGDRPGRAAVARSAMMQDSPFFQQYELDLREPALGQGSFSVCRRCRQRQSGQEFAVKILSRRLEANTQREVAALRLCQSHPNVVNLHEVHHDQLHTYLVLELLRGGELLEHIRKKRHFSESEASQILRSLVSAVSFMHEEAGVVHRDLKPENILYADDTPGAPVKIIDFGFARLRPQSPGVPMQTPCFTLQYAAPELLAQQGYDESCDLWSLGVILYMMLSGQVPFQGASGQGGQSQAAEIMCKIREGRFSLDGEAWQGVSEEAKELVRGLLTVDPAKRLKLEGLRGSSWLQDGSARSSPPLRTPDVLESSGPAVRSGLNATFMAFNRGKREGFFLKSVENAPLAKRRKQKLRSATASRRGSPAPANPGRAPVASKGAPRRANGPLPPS
Excerpt: (§2) We derisk potential for off-target activity by profiling the compound in a CEREP panel, a standard secondary pharmacology assessment, as well as a kinase panel to derisk a potential hinge-binding motif in our leads, and a PARP panel to derisk activity against human […]. Reassuringly, the compounds are selective, with the only off-targets being moderate human CHRM2 and KOR receptors activity associated with ASAP-0011198.

PKA(h) = target: T8, PKA(h) (Homo sapiens, UniProt P17612); experiment: biochemical; parameters: In vitro kinase panel profiling, per cent remaining kinase activity at 10 uM; conditions: atp_concentration=10, read-out: % of control remaining
T8 construct: gene PRKACA
Excerpt: as §2

CB1 (h) = target: T9, CB1 (h) (Homo sapiens, UniProt P21554); experiment: In vitro CEREP profiling, CB1 (h) (agonist radioligand); type: binding; conditions: test compound 10 uM
T9 construct: purchased Eurofins Cerep (SafetyScreen44), recognised from the panel format
T9 sequence (P21554 whole entry): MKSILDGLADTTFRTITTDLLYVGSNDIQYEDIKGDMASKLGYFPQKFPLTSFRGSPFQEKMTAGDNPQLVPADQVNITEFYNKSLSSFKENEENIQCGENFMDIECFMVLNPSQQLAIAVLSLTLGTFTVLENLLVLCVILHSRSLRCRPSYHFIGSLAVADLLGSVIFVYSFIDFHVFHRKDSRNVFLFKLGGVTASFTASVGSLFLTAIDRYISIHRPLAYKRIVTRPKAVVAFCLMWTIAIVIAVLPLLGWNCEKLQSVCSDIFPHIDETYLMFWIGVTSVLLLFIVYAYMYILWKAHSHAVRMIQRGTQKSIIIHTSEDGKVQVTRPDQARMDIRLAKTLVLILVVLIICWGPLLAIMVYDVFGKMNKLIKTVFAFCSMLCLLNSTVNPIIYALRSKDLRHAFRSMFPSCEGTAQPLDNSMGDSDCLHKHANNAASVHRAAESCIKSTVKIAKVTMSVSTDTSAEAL
Excerpt: as §1

H2 (h) = target: T10, H2 (h) (Homo sapiens, UniProt P25021); experiment: In vitro CEREP profiling, H2 (h) (antagonist radioligand); type: binding; conditions: test compound concentration 10 uM
T10 construct: purchased Eurofins Cerep (SafetyScreen44), recognised from the panel format
Excerpt: as §1

5-HT2B (h) = target: T11, 5-HT2B (h) (Homo sapiens, UniProt P41595); experiment: In vitro CEREP profiling, 5-HT2B (h) (agonist radioligand); type: binding; conditions: test compound concentration 10 uM
T11 construct: purchased Eurofins Cerep (SafetyScreen44), recognised from the panel format
Excerpt: as §1

HeLa-ACE2 cells = conditions: HeLa-ACE2 cytotoxicity; for perc_max_measured: highest measured response of the dose series; for perc_min_measured: lowest measured response of the dose series
M3 (h) = target: T12, M3 (h) (Homo sapiens, UniProt P20309); experiment: In vitro CEREP profiling, M3 (h) (antagonist radioligand); type: binding; conditions: test compound concentration 10 uM
T12 construct: purchased Eurofins Cerep (SafetyScreen44), recognised from the panel format
T12 sequence (P20309 whole entry): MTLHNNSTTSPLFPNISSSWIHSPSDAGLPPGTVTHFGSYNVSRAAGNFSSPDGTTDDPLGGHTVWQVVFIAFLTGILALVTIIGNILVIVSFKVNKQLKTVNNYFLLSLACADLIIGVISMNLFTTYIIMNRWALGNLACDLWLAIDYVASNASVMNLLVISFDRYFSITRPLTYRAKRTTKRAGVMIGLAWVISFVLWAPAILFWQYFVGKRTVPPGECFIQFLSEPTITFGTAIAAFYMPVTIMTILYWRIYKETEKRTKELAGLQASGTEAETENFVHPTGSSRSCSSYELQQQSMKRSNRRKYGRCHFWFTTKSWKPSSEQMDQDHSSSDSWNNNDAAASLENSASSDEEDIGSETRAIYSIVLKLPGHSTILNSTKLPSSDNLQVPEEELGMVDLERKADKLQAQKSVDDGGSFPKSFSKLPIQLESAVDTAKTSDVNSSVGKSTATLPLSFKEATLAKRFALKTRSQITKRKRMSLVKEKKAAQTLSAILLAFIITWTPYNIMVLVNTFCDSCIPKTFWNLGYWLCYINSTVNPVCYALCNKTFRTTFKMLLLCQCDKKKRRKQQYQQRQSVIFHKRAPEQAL
Excerpt: as §1

[2] = In vitro kinetic solubility; conditions: In vitro kinetic solubility, ph 7.4
[3] = In vitro dog hepatocyte stability; type: in vitro ADME
Excerpt: Supplement media-1.zip/Hepatocyte_Stability.csv, table | column: clint; t_half

[4] = target: T13, Potassium Channel hERG (human) (Homo sapiens, UniProt Q12809); experiment: In vitro CEREP profiling, Potassium Channel hERG (human)- [3H] Dofetilide; type: binding; conditions: test compound concentration 10 uM
T13 construct: purchased Eurofins Cerep (SafetyScreen44), recognised from the panel format
T13 sequence (Q12809 whole entry): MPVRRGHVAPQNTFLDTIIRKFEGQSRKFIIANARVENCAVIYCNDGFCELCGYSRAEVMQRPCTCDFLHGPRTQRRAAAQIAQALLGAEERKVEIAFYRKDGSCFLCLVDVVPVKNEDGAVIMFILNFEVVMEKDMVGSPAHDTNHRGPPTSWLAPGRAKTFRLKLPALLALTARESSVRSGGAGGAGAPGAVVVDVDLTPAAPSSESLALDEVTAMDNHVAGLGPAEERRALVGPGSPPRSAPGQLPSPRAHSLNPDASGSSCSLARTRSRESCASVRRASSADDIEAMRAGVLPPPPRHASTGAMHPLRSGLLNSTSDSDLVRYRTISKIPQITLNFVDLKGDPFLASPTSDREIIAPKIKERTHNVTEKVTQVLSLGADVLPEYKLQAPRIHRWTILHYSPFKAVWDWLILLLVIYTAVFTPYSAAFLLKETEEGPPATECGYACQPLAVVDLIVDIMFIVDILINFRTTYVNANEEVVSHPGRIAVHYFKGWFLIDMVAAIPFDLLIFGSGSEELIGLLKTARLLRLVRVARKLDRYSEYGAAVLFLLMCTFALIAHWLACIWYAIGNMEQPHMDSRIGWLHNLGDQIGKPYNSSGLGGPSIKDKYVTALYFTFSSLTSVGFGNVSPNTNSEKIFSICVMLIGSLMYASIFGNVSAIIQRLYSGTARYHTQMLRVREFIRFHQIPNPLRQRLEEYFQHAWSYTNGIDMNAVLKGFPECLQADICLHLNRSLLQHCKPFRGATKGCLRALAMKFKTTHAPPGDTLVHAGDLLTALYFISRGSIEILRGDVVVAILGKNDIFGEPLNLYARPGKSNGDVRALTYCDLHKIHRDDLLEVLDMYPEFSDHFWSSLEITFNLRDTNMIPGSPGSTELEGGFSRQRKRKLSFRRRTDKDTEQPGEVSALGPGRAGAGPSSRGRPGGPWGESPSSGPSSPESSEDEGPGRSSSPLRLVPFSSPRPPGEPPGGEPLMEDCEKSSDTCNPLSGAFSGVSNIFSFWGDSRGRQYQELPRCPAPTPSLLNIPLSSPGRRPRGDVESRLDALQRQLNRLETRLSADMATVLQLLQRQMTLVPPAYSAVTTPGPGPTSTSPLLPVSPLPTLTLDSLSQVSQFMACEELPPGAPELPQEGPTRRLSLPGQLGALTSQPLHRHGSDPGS
Excerpt: as §1

D2S (h) = target: T14, D2S (h) (Homo sapiens, UniProt P14416); experiment: In vitro CEREP profiling, D2S (h) (agonist radioligand); type: binding; conditions: test compound 10 uM
T14 construct: purchased Eurofins Cerep (SafetyScreen44), recognised from the panel format
T14 sequence (P14416 1-414 isoform P14416-2): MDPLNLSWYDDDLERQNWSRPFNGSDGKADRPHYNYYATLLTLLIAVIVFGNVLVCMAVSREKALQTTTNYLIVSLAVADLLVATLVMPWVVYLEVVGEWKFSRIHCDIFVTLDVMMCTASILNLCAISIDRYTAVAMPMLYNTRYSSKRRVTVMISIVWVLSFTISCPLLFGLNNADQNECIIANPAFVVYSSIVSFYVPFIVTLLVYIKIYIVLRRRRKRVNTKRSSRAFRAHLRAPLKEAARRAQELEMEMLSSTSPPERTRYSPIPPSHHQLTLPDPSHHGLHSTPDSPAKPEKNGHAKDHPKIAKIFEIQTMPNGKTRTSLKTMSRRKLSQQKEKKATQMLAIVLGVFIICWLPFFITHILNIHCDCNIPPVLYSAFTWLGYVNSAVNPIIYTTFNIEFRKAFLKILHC
Excerpt: as §1

COX1(h) = target: T15, COX1(h) (Homo sapiens, UniProt P23219); experiment: In vitro CEREP profiling, COX1(h); type: biochemical; conditions: test compound concentration 10 uM; Enzyme and Cell-based assays
T15 construct: purchased Eurofins Cerep (SafetyScreen44), recognised from the panel format
T15 sequence (P23219 24-599): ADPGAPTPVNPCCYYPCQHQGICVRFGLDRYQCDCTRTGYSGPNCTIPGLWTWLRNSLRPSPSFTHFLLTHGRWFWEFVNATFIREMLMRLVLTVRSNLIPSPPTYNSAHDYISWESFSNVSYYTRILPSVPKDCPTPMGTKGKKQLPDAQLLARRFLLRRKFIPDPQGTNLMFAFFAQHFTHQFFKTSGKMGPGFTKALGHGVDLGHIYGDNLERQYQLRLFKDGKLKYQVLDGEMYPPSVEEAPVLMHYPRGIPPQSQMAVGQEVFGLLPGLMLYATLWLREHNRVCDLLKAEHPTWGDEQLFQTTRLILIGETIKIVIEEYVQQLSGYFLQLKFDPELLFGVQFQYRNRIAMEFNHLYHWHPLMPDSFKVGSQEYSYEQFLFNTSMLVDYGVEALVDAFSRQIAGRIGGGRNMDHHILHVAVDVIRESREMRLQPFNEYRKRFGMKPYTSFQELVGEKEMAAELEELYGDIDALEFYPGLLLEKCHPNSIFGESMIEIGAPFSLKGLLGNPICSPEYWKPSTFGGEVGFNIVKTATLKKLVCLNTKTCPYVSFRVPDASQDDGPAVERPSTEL
Excerpt: as §1

Structure (SMILES): C[C@H](C(=O)O)[C@@H](NC(=O)c1ncnc2[nH]ccc12)c1ccc(Br)cc1 [ASAP-0014722]
- perc_inhibition (% inhibition of the binding of a ligand specific for each target) (CCK1 (CCKA) (h)): 6%
- perc_inhibition (% inhibition of the binding of a ligand specific for each target) (A2A (h)): -14%
- logd (LogD): 0.6
- perc_inhibition (% inhibition of the binding of a ligand specific for each target) (5-HT3 (h)): 2%
- clint [1]: < 5.0 µL/min/mg
- t_half [1]: > 139.0 min
- perc_inhibition (% inhibition of the binding of a ligand specific for each target) (beta2 (h)): -8%
- perc_inhibition (% inhibition of the binding of a ligand specific for each target) (dopamine transporter (h)): 4%
- perc_inhibition (% inhibition of the binding of a ligand specific for each target) (5-HT1B (h)): 1%
- remaining activity at 10 µM (MSK2(h); batch_name=ASAP-0014722-002): 90%
- remaining activity at 10 µM (PKA(h); batch_name=ASAP-0014722-002): 87%
- perc_inhibition (% inhibition of the binding of a ligand specific for each target) (CB1 (h)): -11%
- perc_inhibition (% inhibition of the binding of a ligand specific for each target) (H2 (h)): -21%
- perc_inhibition (% inhibition of the binding of a ligand specific for each target) (5-HT2B (h)): -4%
- CC50 (HeLa-ACE2 cells): > 20 µM
- cc10 (HeLa-ACE2 cells): > 20.0 µM
- perc_max_measured (HeLa-ACE2 cells): 102.029% and 107.127%
- perc_min_measured (HeLa-ACE2 cells): 80.657% and 84.357%
- perc_inhibition (% inhibition of the binding of a ligand specific for each target) (M3 (h)): -9%
- solubility_mean [2]: 358 µM (≈ 144 µg/mL)
- clint [3]: < 3.0 uL/min/1E6 cells
- t_half [3]: > 231.0 min
- perc_inhibition (% inhibition of the binding of a ligand specific for each target) [4]: 14%
- perc_inhibition (% inhibition of the binding of a ligand specific for each target) (D2S (h)): -1%
- perc_inhibition: % inhibition of control enzyme activity, COX1(h) (COX1(h)): 14%

Structure (SMILES): COc1ccc([C@H](Cc2nnn[nH]2)NC(=O)c2ncnc3[nH]ccc23)cc1 [ASAP-0015381]
- perc_inhibition (% inhibition of the binding of a ligand specific for each target) (CCK1 (CCKA) (h)): -5%
- perc_inhibition (% inhibition of the binding of a ligand specific for each target) (A2A (h)): -13%
- logd (LogD): -0.5
- perc_inhibition (% inhibition of the binding of a ligand specific for each target) (5-HT3 (h)): 6%
- clint [1]: < 5.0 µL/min/mg
- t_half [1]: > 139.0 min
- perc_inhibition (% inhibition of the binding of a ligand specific for each target) (beta2 (h)): -6%
- perc_inhibition (% inhibition of the binding of a ligand specific for each target) (dopamine transporter (h)): 7%
- perc_inhibition (% inhibition of the binding of a ligand specific for each target) (5-HT1B (h)): -14%
- remaining activity at 10 µM (MSK2(h); batch_name=ASAP-0015381-001): 103%
- remaining activity at 10 µM (PKA(h); batch_name=ASAP-0015381-001): 88%
- perc_inhibition (% inhibition of the binding of a ligand specific for each target) (CB1 (h)): -8%
- perc_inhibition (% inhibition of the binding of a ligand specific for each target) (H2 (h)): -24%
- perc_inhibition (% inhibition of the binding of a ligand specific for each target) (5-HT2B (h)): -33%
- CC50 (HeLa-ACE2 cells): > 20 µM
- cc10 (HeLa-ACE2 cells): > 20.0 µM
- perc_max_measured (HeLa-ACE2 cells): 115.218% and 123.48%
- perc_min_measured (HeLa-ACE2 cells): 79.698% and 90.022%
- perc_inhibition (% inhibition of the binding of a ligand specific for each target) (M3 (h)): -15%
- solubility_mean [2]: 367 µM (≈ 134 µg/mL)
- clint [3]: < 3.0 uL/min/1E6 cells
- t_half [3]: > 231.0 min
- perc_inhibition (% inhibition of the binding of a ligand specific for each target) [4]: 5%
- perc_inhibition (% inhibition of the binding of a ligand specific for each target) (D2S (h)): -4%
- perc_inhibition: % inhibition of control enzyme activity, COX1(h) (COX1(h)): 17%
